These results are taken from patent US12390472B2 (SUZHOU SINOVENT PHARMACEUTICALS CO., LTD., priority 2018, dated 2025).

One assay deals with WSU-DLCL2. Nature of the assay: Methylated lysine of histone-H3 (H3K27Me3) detection by ELISA, WSU-DLCL2 cells. The format is cell-based. The note with it: Homo sapiens, WSUDLCL2, 168 h; WSU-DLCL2, 7 days treatment, H3K27Me3 normalized to total histone-3; read-out: IC50 of cell methylation, WSU-DLCL2. The gist of the method:
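Cells were treated 7 days with compound (4-fold dilutions, 20 uM-0.009 nM), then lysed hypotonically with NaCl adjusted to ~100 mM. Lysate-coated plates were probed by ELISA for H3K27Me3 and total H3 (TMB, A450). Methylation signal was normalised to total H3 before curve fitting.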

For assay [1], the system named is subcutaneous xenograft tumor model of human B lymphocyte Pfeiffer. Briefly: In vivo efficacy in subcutaneous xenograft tumor model of human B lymphocyte Pfeiffer. On the set-up: species or system mouse. The following applies: SCID Beige mice, 100 mg/kg p.o. QD 21 days, tumor volume 21 days after administration. A general note: A xenograft is tissue or cells of one species grown in another, often human tumour cells in immunodeficient mice.

Molecules are shown by their SMILES.

In general, IC50 refers to the concentration needed to halve the response being measured. Usually TGI stands for how far tumour growth fell short of that in controls. A low value points to little slowing of growth.

`CCN(c1cc(O[C@H]2C[C@H](N3C[C@@H](C)O[C@@H](C)C3)C2)cc(C(=O)NCc2c(C)cc(C)[nH]c2=O)c1C)C1CCC(F)(F)CC1` [Example 45, 3-((4,4-difluorocyclohexyl)(ethyl)amino)-N-((4,6-dimethyl-2-oxo-1,2-dihydropyridin-3-yl)methyl)-5-(trans-3-(cis-2,6-dimethylmorpholinyl)cyclobutoxy)-2-methylbenzamide]: the IC50 with WSU-DLCL2 is 0.05 to 0.5 µM. The TGI in assay [1] was determined as 66.20%.
